± gives the uncertainty stated by the source.
Experiment: xn = mol fraction of the nth substance listed

For `CCC(=O)OC` + ClC(Cl)C(Cl)Cl, the viscosity (308.15 K, 101.3 kPa, x1 = 0.0501) was 1.352 ± 0.01 mPa·s, the viscosity (308.15 K, 101.3 kPa, x1 = 0.1021) was 1.296 ± 0.01 mPa·s and the viscosity (308.15 K, 101.3 kPa, x1 = 0.2031) was 1.186 ± 0.009 mPa·s. For the same compound, the viscosity (308.15 K, 101.3 kPa, x1 = 0.302) was 1.078 ± 0.009 mPa·s, the viscosity (308.15 K, 101.3 kPa, x1 = 0.3398) was 1.037 ± 0.008 mPa·s and the viscosity (308.15 K, 101.3 kPa, x1 = 0.5038) was 0.865 ± 0.007 mPa·s. The viscosity (308.15 K, 101.3 kPa, x1 = 0.6012) was 0.769 ± 0.006 mPa·s, the viscosity (308.15 K, 101.3 kPa, x1 = 0.6946) was 0.681 ± 0.006 mPa·s and the viscosity (308.15 K, 101.3 kPa, x1 = 0.7988) was 0.591 ± 0.005 mPa·s. It also gave a viscosity (308.15 K, 101.3 kPa, x1 = 0.9016) of 0.509 ± 0.005 mPa·s, a viscosity (308.15 K, 101.3 kPa, x1 = 0.9481) of 0.474 ± 0.004 mPa·s and a viscosity (318.15 K, 101.3 kPa, x1 = 0.0501) of 1.214 ± 0.01 mPa·s. The viscosity (318.15 K, 101.3 kPa, x1 = 0.1021) was 1.149 ± 0.009 mPa·s, the viscosity (318.15 K, 101.3 kPa, x1 = 0.2031) was 1.032 ± 0.008 mPa·s and the viscosity (318.15 K, 101.3 kPa, x1 = 0.302) was 0.927 ± 0.008 mPa·s. It also gave a viscosity (318.15 K, 101.3 kPa, x1 = 0.3398) of 0.889 ± 0.007 mPa·s, a viscosity (318.15 K, 101.3 kPa, x1 = 0.5038) of 0.741 ± 0.006 mPa·s and a viscosity (318.15 K, 101.3 kPa, x1 = 0.6012) of 0.664 ± 0.006 mPa·s. For the same compound, the viscosity (318.15 K, 101.3 kPa, x1 = 0.6946) was 0.597 ± 0.005 mPa·s, the viscosity (318.15 K, 101.3 kPa, x1 = 0.7988) was 0.528 ± 0.005 mPa·s and the viscosity (318.15 K, 101.3 kPa, x1 = 0.9016) was 0.468 ± 0.004 mPa·s. The viscosity (318.15 K, 101.3 kPa, x1 = 0.9481) was 0.443 ± 0.004 mPa·s.

For `CCOCCOCCOCCO` + ClC=C(Cl)Cl, the viscosity (298.15 K, 101.33 kPa, x1 = 0.0053) was 0.54 ± 0.006 mPa·s, the viscosity (298.15 K, 101.33 kPa, x1 = 0.0167) was 0.565 ± 0.006 mPa·s and the viscosity (298.15 K, 101.33 kPa, x1 = 0.026) was 0.587 ± 0.006 mPa·s. The viscosity (298.15 K, 101.33 kPa, x1 = 0.0395) was 0.618 ± 0.006 mPa·s, the viscosity (298.15 K, 101.33 kPa, x1 = 0.0528) was 0.651 ± 0.007 mPa·s and the viscosity (298.15 K, 101.33 kPa, x1 = 0.0728) was 0.707 ± 0.007 mPa·s. The viscosity (298.15 K, 101.33 kPa, x1 = 0.1054) was 0.809 ± 0.008 mPa·s, the viscosity (298.15 K, 101.33 kPa, x1 = 0.1458) was 0.947 ± 0.009 mPa·s and the viscosity (298.15 K, 101.33 kPa, x1 = 0.1858) was 1.103 ± 0.011 mPa·s. The viscosity (298.15 K, 101.33 kPa, x1 = 0.2345) was 1.326 ± 0.013 mPa·s, the viscosity (298.15 K, 101.33 kPa, x1 = 0.2866) was 1.587 ± 0.016 mPa·s and the viscosity (298.15 K, 101.33 kPa, x1 = 0.3318) was 1.832 ± 0.018 mPa·s. For the same compound, the viscosity (298.15 K, 101.33 kPa, x1 = 0.3679) was 2.048 ± 0.02 mPa·s, the viscosity (298.15 K, 101.33 kPa, x1 = 0.4108) was 2.323 ± 0.023 mPa·s and the viscosity (298.15 K, 101.33 kPa, x1 = 0.447) was 2.559 ± 0.026 mPa·s. It also gave a viscosity (298.15 K, 101.33 kPa, x1 = 0.4818) of 2.796 ± 0.028 mPa·s, a viscosity (298.15 K, 101.33 kPa, x1 = 0.523) of 3.087 ± 0.032 mPa·s and a viscosity (298.15 K, 101.33 kPa, x1 = 0.5639) of 3.396 ± 0.035 mPa·s. The viscosity (298.15 K, 101.33 kPa, x1 = 0.6278) was 3.88 ± 0.041 mPa·s, the viscosity (298.15 K, 101.33 kPa, x1 = 0.6904) was 4.378 ± 0.046 mPa·s and the viscosity (298.15 K, 101.33 kPa, x1 = 0.7278) was 4.683 ± 0.05 mPa·s. For the same compound, the viscosity (298.15 K, 101.33 kPa, x1 = 0.7721) was 5.051 ± 0.055 mPa·s, the viscosity (298.15 K, 101.33 kPa, x1 = 0.8271) was 5.521 ± 0.06 mPa·s and the viscosity (298.15 K, 101.33 kPa, x1 = 0.8733) was 5.952 ± 0.065 mPa·s. The viscosity (298.15 K, 101.33 kPa, x1 = 0.9136) was 6.273 ± 0.069 mPa·s, the viscosity (298.15 K, 101.33 kPa, x1 = 0.9317) was 6.46 ± 0.072 mPa·s and the viscosity (298.15 K, 101.33 kPa, x1 = 0.9672) was 6.773 ± 0.076 mPa·s. It also gave a viscosity (298.15 K, 101.33 kPa, x2 = 0.0194) of 6.891 ± 0.077 mPa·s.

`CCC(=O)OC` + Clc1ccccc1 gave a viscosity (308.15 K, 101.3 kPa, x1 = 0.0485) of 0.646 ± 0.004 mPa·s, a viscosity (308.15 K, 101.3 kPa, x1 = 0.0993) of 0.635 ± 0.004 mPa·s and a viscosity (308.15 K, 101.3 kPa, x1 = 0.2038) of 0.612 ± 0.004 mPa·s. For the same compound, the viscosity (308.15 K, 101.3 kPa, x1 = 0.2614) was 0.599 ± 0.004 mPa·s, the viscosity (308.15 K, 101.3 kPa, x1 = 0.4087) was 0.567 ± 0.004 mPa·s and the viscosity (308.15 K, 101.3 kPa, x1 = 0.4556) was 0.556 ± 0.004 mPa·s. For the same compound, the viscosity (308.15 K, 101.3 kPa, x1 = 0.6041) was 0.523 ± 0.004 mPa·s, the viscosity (308.15 K, 101.3 kPa, x1 = 0.7011) was 0.503 ± 0.004 mPa·s and the viscosity (308.15 K, 101.3 kPa, x1 = 0.8064) was 0.479 ± 0.004 mPa·s. The viscosity (308.15 K, 101.3 kPa, x1 = 0.9054) was 0.457 ± 0.004 mPa·s, the viscosity (308.15 K, 101.3 kPa, x1 = 0.9486) was 0.448 ± 0.004 mPa·s and the viscosity (318.15 K, 101.3 kPa, x1 = 0.0485) was 0.598 ± 0.004 mPa·s. For the same compound, the viscosity (318.15 K, 101.3 kPa, x1 = 0.0993) was 0.589 ± 0.004 mPa·s, the viscosity (318.15 K, 101.3 kPa, x1 = 0.2038) was 0.57 ± 0.004 mPa·s and the viscosity (318.15 K, 101.3 kPa, x1 = 0.2614) was 0.559 ± 0.004 mPa·s. For the same compound, the viscosity (318.15 K, 101.3 kPa, x1 = 0.4087) was 0.531 ± 0.004 mPa·s, the viscosity (318.15 K, 101.3 kPa, x1 = 0.4556) was 0.522 ± 0.004 mPa·s and the viscosity (318.15 K, 101.3 kPa, x1 = 0.6041) was 0.493 ± 0.004 mPa·s. It also gave a viscosity (318.15 K, 101.3 kPa, x1 = 0.7011) of 0.475 ± 0.004 mPa·s, a viscosity (318.15 K, 101.3 kPa, x1 = 0.8064) of 0.454 ± 0.004 mPa·s and a viscosity (318.15 K, 101.3 kPa, x1 = 0.9054) of 0.434 ± 0.004 mPa·s. It also gave a viscosity (318.15 K, 101.3 kPa, x1 = 0.9486) of 0.426 ± 0.004 mPa·s.

Compound `CCCC[N+]1=C2CCCCCN2CCC1.c1c[n-]cn1` + O has a viscosity (293.15 K, 100 kPa, x1 = 0.0298) of 4.316 ± 0.19 mPa·s, a viscosity (293.15 K, 100 kPa, x1 = 0.0697) of 12.27 ± 0.34 mPa·s and a viscosity (293.15 K, 100 kPa, x1 = 0.0991) of 19.53 ± 0.55 mPa·s. The viscosity (293.15 K, 100 kPa, x1 = 0.2001) was 55.65 ± 1.3 mPa·s, the viscosity (293.15 K, 100 kPa, x1 = 0.3002) was 97.57 ± 2.9 mPa·s and the viscosity (293.15 K, 100 kPa, x1 = 0.439) was 133.7 ± 4.9 mPa·s. For the same compound, the viscosity (293.15 K, 100 kPa, x1 = 0.5972) was 136.6 ± 5.2 mPa·s, the viscosity (293.15 K, 100 kPa, x1 = 0.7501) was 127.6 ± 4.7 mPa·s and the viscosity (293.15 K, 100 kPa, x1 = 0.89) was 117.4 ± 4.1 mPa·s. It also gave a viscosity (298.15 K, 100 kPa, x1 = 0.0298) of 3.347 ± 0.15 mPa·s, a viscosity (298.15 K, 100 kPa, x1 = 0.0697) of 9.898 ± 0.28 mPa·s and a viscosity (298.15 K, 100 kPa, x1 = 0.0991) of 15.3 ± 0.41 mPa·s. The viscosity (298.15 K, 100 kPa, x1 = 0.2001) was 39.88 ± 0.93 mPa·s, the viscosity (298.15 K, 100 kPa, x1 = 0.3002) was 66.69 ± 1.6 mPa·s and the viscosity (298.15 K, 100 kPa, x1 = 0.439) was 88.91 ± 2.5 mPa·s. For the same compound, the viscosity (298.15 K, 100 kPa, x1 = 0.5972) was 91.45 ± 2.7 mPa·s, the viscosity (298.15 K, 100 kPa, x1 = 0.7501) was 86.9 ± 2.5 mPa·s and the viscosity (298.15 K, 100 kPa, x1 = 0.89) was 80.42 ± 2.2 mPa·s. The viscosity (303.15 K, 100 kPa, x1 = 0.0298) was 2.838 ± 0.12 mPa·s, the viscosity (303.15 K, 100 kPa, x1 = 0.0697) was 8.133 ± 0.22 mPa·s and the viscosity (303.15 K, 100 kPa, x1 = 0.0991) was 12.48 ± 0.32 mPa·s. The viscosity (303.15 K, 100 kPa, x1 = 0.2001) was 29.5 ± 0.68 mPa·s, the viscosity (303.15 K, 100 kPa, x1 = 0.3002) was 47.22 ± 1.1 mPa·s and the viscosity (303.15 K, 100 kPa, x1 = 0.439) was 61.57 ± 1.4 mPa·s. It also gave a viscosity (303.15 K, 100 kPa, x1 = 0.5972) of 63.37 ± 1.5 mPa·s, a viscosity (303.15 K, 100 kPa, x1 = 0.7501) of 60.13 ± 1.4 mPa·s and a viscosity (303.15 K, 100 kPa, x1 = 0.89) of 57.19 ± 1.3 mPa·s. The viscosity (308.15 K, 100 kPa, x1 = 0.0298) was 2.449 ± 0.1 mPa·s, the viscosity (308.15 K, 100 kPa, x1 = 0.0697) was 6.778 ± 0.18 mPa·s and the viscosity (308.15 K, 100 kPa, x1 = 0.0991) was 9.929 ± 0.25 mPa·s. For the same compound, the viscosity (308.15 K, 100 kPa, x1 = 0.2001) was 22.51 ± 0.51 mPa·s, the viscosity (308.15 K, 100 kPa, x1 = 0.3002) was 34.56 ± 0.78 mPa·s and the viscosity (308.15 K, 100 kPa, x1 = 0.439) was 44.11 ± 1 mPa·s. For the same compound, the viscosity (308.15 K, 100 kPa, x1 = 0.5972) was 45.74 ± 1.1 mPa·s, the viscosity (308.15 K, 100 kPa, x1 = 0.7501) was 43.8 ± 1 mPa·s and the viscosity (308.15 K, 100 kPa, x1 = 0.89) was 41.93 ± 1 mPa·s. The viscosity (313.15 K, 100 kPa, x1 = 0.0298) was 2.138 ± 0.087 mPa·s, the viscosity (313.15 K, 100 kPa, x1 = 0.0697) was 5.738 ± 0.15 mPa·s and the viscosity (313.15 K, 100 kPa, x1 = 0.0991) was 8.244 ± 0.2 mPa·s. The viscosity (313.15 K, 100 kPa, x1 = 0.2001) was 17.58 ± 0.4 mPa·s, the viscosity (313.15 K, 100 kPa, x1 = 0.3002) was 26.15 ± 0.6 mPa·s and the viscosity (313.15 K, 100 kPa, x1 = 0.439) was 32.54 ± 0.76 mPa·s. It also gave a viscosity (313.15 K, 100 kPa, x1 = 0.5972) of 33.55 ± 0.79 mPa·s, a viscosity (313.15 K, 100 kPa, x1 = 0.7501) of 32.34 ± 0.76 mPa·s and a viscosity (313.15 K, 100 kPa, x1 = 0.89) of 31.79 ± 0.76 mPa·s.

— the CheMixHub viscosity set
